Experimental data from US10787454B2, “Imidazo[1,5-a]pyrimidinyl carboxamide compounds and their use in the treatment of medical disorders” (BIAL-BioTech Investments, Inc., priority 2016, dated 2020).
In brackets after ≈: the same amount, converted by molar mass.

How the values were obtained:
[1] = Compound solubility in water; format: physicochemical
[2] = biological target: T1, glucocerebrosidase (Gcase) (Homo sapiens, UniProt P04062); assay: Glucocerebrosidase (Gcase) activation assay, 4-methylumbelliferyl-beta-D-glucopyranoside substrate, with saposin C; format: biochemical; settings: for activation at 0.1 µM: read-out: Percent Gcase Activation, 0.1 μM Test Compound; for activation at 1 µM / Percent Gcase Activation, 1 μM Test Compound: test compound at 1.0 μM; for activation at 1 µM: read-out: Percent Gcase Activation, 1 μM Test Compound
T1 sequence (P04062 40-536): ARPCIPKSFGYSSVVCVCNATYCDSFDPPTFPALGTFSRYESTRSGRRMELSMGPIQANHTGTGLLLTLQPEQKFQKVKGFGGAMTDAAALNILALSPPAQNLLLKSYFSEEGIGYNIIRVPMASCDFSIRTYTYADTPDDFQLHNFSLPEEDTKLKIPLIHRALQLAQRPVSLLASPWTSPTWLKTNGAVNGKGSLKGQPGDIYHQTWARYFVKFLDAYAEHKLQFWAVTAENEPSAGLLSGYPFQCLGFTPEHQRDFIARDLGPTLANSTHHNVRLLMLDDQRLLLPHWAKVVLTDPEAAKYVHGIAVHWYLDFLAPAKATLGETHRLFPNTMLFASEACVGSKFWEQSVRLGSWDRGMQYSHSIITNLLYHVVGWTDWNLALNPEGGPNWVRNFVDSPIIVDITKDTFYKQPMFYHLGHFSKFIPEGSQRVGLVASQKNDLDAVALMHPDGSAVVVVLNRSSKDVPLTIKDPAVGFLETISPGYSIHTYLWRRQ
Protocol: The ability of exemplary compounds to activate glucocerebrosidase (Gcase) was measured.
A 484 μL aliquot of a 1.0 mg/mL solution of phosphatidylserine (PS) (Sigma P7769) in chloroform was evaporated under a stream of nitrogen for 1 hour. The lipid film was dissolved over 4 minutes of vigorous vortexing in 40 mL of 176 mM K2HPO4/50 mM citric acid (pH 4.7) containing 7.5 μL of triton X-100, resulting in a mixed micellar preparation with a composition of 0.32 mM triton and 0.37 mol % PS. 4-Methylumbelliferyl-beta-D-glucopyranoside (ACROS-337025000) was dissolved in the micellar solution to a final concentration of 2 mM for use as the reaction substrate.
Test compounds were diluted to the desired concentrations with dimethylsulfoxide (DMSO) from 10 mM stocks, and 0.41 μL of the DMSO compound mixture was added to 100 μL of micellar solution containing 10 nM GCase and 100 nM saposin C (Enzo ALX-201-262-C050). Pre-incubation was allowed to occur for 30 minutes at room temperature, after which the reaction was initiated by combining 25 μL of substrate solution with 25 μL of compound/GCase/saposin mixture. The reaction proceeded for 15 minutes at room temperature and was stopped by adding 150 μL of 1M glycine, pH 12.5. The endpoint of the reaction was monitored by measuring fluorescence intensity (excitation: 365 nm; emission: 440 nm) on a SpectraMax i3 instrument (Molecular Devices). Test compounds were screened at 1.0 and 0.1 μM final concentration, and subsequent 8-point dose response curves were obtained using 3-fold dilutions from a maximum final concentration of 5 μM.

SMILES	solubility [1]	activation at 0.1 µM ([2]; test compound at 0.1 μM)	activation at 1 µM [2]	Percent Gcase Activation, 1 μM Test Compound [2]	Compound Solubility in Water [1]	Percent Gcase Activation, 0.1 μM Test Compound ([2]; test compound at 0.1 μM)
Cc1cc(Oc2ccc(F)cc2)nc2c(C(=O)N[C@@H](C)C3CC3)ncn12 [III-77]	10.6 µg/mL (≈ 29.9 µM)	< 10%	30 to 60%	–	–	–
Cc1cc(C)n2cnc(C(=O)NC(C)C3CCCCC3)c2n1 (stereo not shown) [III-9]	–	–	–	+++ (Gcase activation greater than 60%)	–	–
Cc1cc(N)nc2c(C(=O)NC(c3ccc(F)cc3)C(F)(F)F)ncn12 (stereo not shown) [III-17]	0.9 µg/mL (≈ 2.45 µM)	> 20%	> 60%	–	–	–
Cc1cc(C)n2cnc(C(=O)NC(C)C3CCCCC3)c2n1 (stereo not shown) [III-10]	–	–	–	+++ (Gcase activation greater than 60%)	23.0 µg/mL	** (Gcase activation in the range of 10% up to 20%)
